From patent US20250231185A1, “Coronavirus T Cell Epitopes, Megapools and Uses Thereof” (La Jolla Institute for Immunology, priority 2021, published 2025)

System: CD8+ T cells
Test: not given
Settings: CD8R (D) megapool epitopes; dominant = recognized by 3 or more donors/different studies; cited from earlier work

| Substance | Dominant |
| --- | --- |
| 1804 (ALSKGVHFV) [compound 1804] | Yes (more dominant epitopes are defined by being recognized by 3 or more donors/different studies) |
| 1755 (KMQRMLLEK) [compound 1755] | Yes (more dominant epitopes are defined by being recognized by 3 or more donors/different studies) |
| 1734 (VVYRGTTTYK) [compound 1734] | Yes (more dominant epitopes are defined by being recognized by 3 or more donors/different studies) |
| 1683 (KFPRGQGVPI) [compound 1683] | Yes (more dominant epitopes are defined by being recognized by 3 or more donors/different studies) |

Same assay, conditions: CD8RE megapool peptides (non-spike SARS-CoV-2 antigens); dominant epitope Yes/No; cited from earlier work

| Substance | Dominant |
| --- | --- |
| 3015 (FLNGSCGSV) [compound 3015] | Yes (more dominant epitopes are defined by being recognized by 3 or more donors/different studies) |
| 3038 (IVGVALLAVF) [compound 3038] | Yes (more dominant epitopes are defined by being recognized by 3 or more donors/different studies) |
| 2961 (RILGAGCFV) [compound 2961] | Yes (more dominant epitopes are defined by being recognized by 3 or more donors/different studies) |
| 2999 (TTDPSFLGRY) [compound 2999] | Yes (more dominant epitopes are defined by being recognized by 3 or more donors/different studies) |
| 2917 (NTASWFTAL) [compound 2917] | Yes (more dominant epitopes are defined by being recognized by 3 or more donors/different studies) |

Same assay, conditions: SARS-CoV-2-derived CD8 epitopes; dominant = recognized by 3 or more donors/different studies; cited from earlier work

| Substance | Dominant |
| --- | --- |
| 539 (GMSRIGMEV) [compound 539] | Yes (more dominant epitopes are defined by being recognized by 3 or more donors/different studies) |

Same assay, conditions: SARS-CoV-2 Ag S; T cell type recognizing the epitope; cited from earlier work

| Substance | Restriction |
| --- | --- |
| 1302 (GNYNYLYRLF) [compound 1302] | CD8 |
| 1380 (TLADAGFIK) [compound 1380] | CD8 |
| 1387 (LTDEMIAQYT) [compound 1387] | CD8 |
| 1439 (VFVSNGTHW) [compound 1439] | CD8 |
| 1344 (YECDIPIGAGI) [compound 1344] | CD8 |

Same assay, conditions: T cell subset (CD4 or CD8) recognizing the SARS-CoV-2-derived epitope; cited from earlier work

| Substance | Restriction |
| --- | --- |
| 506 (LPYGANKDGI) [compound 506] | CD8 |
| 591 (VELGTEVNEF) [compound 591] | CD8 |
| 539 (GMSRIGMEV) [compound 539] | CD8 |
| 573 (ITILDGISQY) [compound 573] | CD8 |
| 604 (IEVNSFSGY) [compound 604] | CD8 |
| 697 (ASRELKVTF) [compound 697] | CD8 |
| 602 (TPVVQTIEV) [compound 602] | CD8 |

Same assay, conditions: T cell type (CD4 or CD8) recognizing the SARS-CoV-2 epitope; cited from earlier work

| Substance | Restriction |
| --- | --- |
| 984 (MLRIMASL) [compound 984] | CD8 |
| 900 (TYKNTCDGTTF) [compound 900] | CD8 |
| 1094 (SSEAFLIGCNY) [compound 1094] | CD8 |
| 962 (YRYNLPTMC) [compound 962] | CD8 |
| 1004 (VYLPYPDPSRI) [compound 1004] | CD8 |
| 983 (NMLRIMASL) [compound 983] | CD8 |

System: CD8+ T cells
Test: Meta-analysis of published SARS-CoV-2 CD8 T cell epitope data curated in the IEDB (25 studies)
Assay type: cell-based, human
Settings: CD8-restricted SARS-CoV-2 epitopes; Yes = recognized by 3 or more donors/different studies

| Substance | Dominant |
| --- | --- |
| 1251 (LPQGFSAL) [compound 1251] | Yes (more dominant epitopes are defined by being recognized by 3 or more donors/different studies) |
| 1173 (QLRARSVSPK) [compound 1173] | Yes (more dominant epitopes are defined by being recognized by 3 or more donors/different studies) |
| 1204 (YTNSFTRGVY) [compound 1204] | Yes (more dominant epitopes are defined by being recognized by 3 or more donors/different studies) |
| 1109 (IPIQASLPF) [compound 1109] | Yes (more dominant epitopes are defined by being recognized by 3 or more donors/different studies) |
| 1119 (ALSKGVHFV) [compound 1119] | Yes (more dominant epitopes are defined by being recognized by 3 or more donors/different studies) |
| 1220 (RFDNPVLPF) [compound 1220] | Yes (more dominant epitopes are defined by being recognized by 3 or more donors/different studies) |
| 1181 (IMLIIFWFSL) [compound 1181] | Yes (more dominant epitopes are defined by being recognized by 3 or more donors/different studies) |
| 1296 (KIADYNYKL) [compound 1296] | Yes (more dominant epitopes are defined by being recognized by 3 or more donors/different studies) |
| 1150 (FTSDYYQLY) [compound 1150] | Yes (more dominant epitopes are defined by being recognized by 3 or more donors/different studies) |

Same assay, conditions: CD8S (D) Megapool, antigen S; dominant = recognized in 3 or more donors/studies

| Substance | Dominant |
| --- | --- |
| 1496 (VASQSIIAY) [compound 1496] | Yes (more dominant epitopes are defined by being recognized by 3 or more donors/different studies) |
| 1503 (LTDEMIAQY) [compound 1503] | Yes (more dominant epitopes are defined by being recognized by 3 or more donors/different studies) |
| 1494 (SPRRARSVA) [compound 1494] | Yes (more dominant epitopes are defined by being recognized by 3 or more donors/different studies) |
| 1471 (RFDNPVLPF) [compound 1471] | Yes (more dominant epitopes are defined by being recognized by 3 or more donors/different studies) |
| 1487 (NLDSKVGGNY) [compound 1487] | Yes (more dominant epitopes are defined by being recognized by 3 or more donors/different studies) |
| 1507 (NQKLIANQF) [compound 1507] | Yes (more dominant epitopes are defined by being recognized by 3 or more donors/different studies) |
| 1498 (FTISVTTEIL) [compound 1498] | Yes (more dominant epitopes are defined by being recognized by 3 or more donors/different studies) |
| 1478 (TPINLVRDL) [compound 1478] | Yes (more dominant epitopes are defined by being recognized by 3 or more donors/different studies) |
| 1483 (CVADYSVLY) [compound 1483] | Yes (more dominant epitopes are defined by being recognized by 3 or more donors/different studies) |
| 1490 (FQPTNGVGY) [compound 1490] | Yes (more dominant epitopes are defined by being recognized by 3 or more donors/different studies) |
| 1475 (SSANNCTFEY) [compound 1475] | Yes (more dominant epitopes are defined by being recognized by 3 or more donors/different studies) |
| 1472 (GVYFASTEK) [compound 1472] | Yes (more dominant epitopes are defined by being recognized by 3 or more donors/different studies) |
| 1501 (LLQYGSFCT) [compound 1501] | Yes (more dominant epitopes are defined by being recognized by 3 or more donors/different studies) |
| 1518 (QYIKWPWYI) [compound 1518] | Yes (more dominant epitopes are defined by being recognized by 3 or more donors/different studies) |
| 1488 (NYNYLYRLF) [compound 1488] | Yes (more dominant epitopes are defined by being recognized by 3 or more donors/different studies) |
| 1482 (RISNCVADY) [compound 1482] | Yes (more dominant epitopes are defined by being recognized by 3 or more donors/different studies) |
| 1474 (TLDSKTQSL) [compound 1474] | Yes (more dominant epitopes are defined by being recognized by 3 or more donors/different studies) |

Same assay, conditions: CD8 epitopes; Yes = recognized by 3 or more donors/different studies

| Substance | Dominant |
| --- | --- |
| 420 (SLVKPSFYV) [compound 420] | Yes (more dominant epitopes are defined by being recognized by 3 or more donors/different studies) |
| 471 (TVATSRTLSYYK) [compound 471] | Yes (more dominant epitopes are defined by being recognized by 3 or more donors/different studies) |
| 463 (SELVIGAVIL) [compound 463] | Yes (more dominant epitopes are defined by being recognized by 3 or more donors/different studies) |
| 491 (NTASWFTAL) [compound 491] | Yes (more dominant epitopes are defined by being recognized by 3 or more donors/different studies) |
| 466 (AVILRGHLR) [compound 466] | Yes (more dominant epitopes are defined by being recognized by 3 or more donors/different studies) |
| 451 (SYFIASFRLFA) [compound 451] | Yes (more dominant epitopes are defined by being recognized by 3 or more donors/different studies) |
| 442 (TLACFVLAAV) [compound 442] | Yes (more dominant epitopes are defined by being recognized by 3 or more donors/different studies) |

Same assay, conditions: SARS-CoV-2-derived CD8 epitopes; dominant = recognized by 3 or more donors/different studies

| Substance | Dominant |
| --- | --- |
| 745 (AYILFTRFFYV) [compound 745] | Yes (more dominant epitopes are defined by being recognized by 3 or more donors/different studies) |
| 874 (MPASWVMRI) [compound 874] | Yes (more dominant epitopes are defined by being recognized by 3 or more donors/different studies) |
| 810 (FSAVGNICY) [compound 810] | Yes (more dominant epitopes are defined by being recognized by 3 or more donors/different studies) |
| 841 (FLLNKEMYL) [compound 841] | Yes (more dominant epitopes are defined by being recognized by 3 or more donors/different studies) |
| 848 (TSEDMLNPNY) [compound 848] | Yes (more dominant epitopes are defined by being recognized by 3 or more donors/different studies) |
| 883 (NYSGVVTTVMF) [compound 883] | Yes (more dominant epitopes are defined by being recognized by 3 or more donors/different studies) |
| 882 (SMWALIISV) [compound 882] | Yes (more dominant epitopes are defined by being recognized by 3 or more donors/different studies) |
| 856 (FLNGSCGSV) [compound 856] | Yes (more dominant epitopes are defined by being recognized by 3 or more donors/different studies) |
| 877 (KLKDCVMYA) [compound 877] | Yes (more dominant epitopes are defined by being recognized by 3 or more donors/different studies) |
| 719 (NYMPYFFTL) [compound 719] | Yes (more dominant epitopes are defined by being recognized by 3 or more donors/different studies) |
